Laboratory results published in ChEMBL document CHEMBL1201862, “PubChem BioAssay data set” (2004).
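Assay format: 96-well plates, 48-hour exposure. GI50: concentration for 50% inhibition of growth.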 Activity calls are given as the source filed them. Cut-off read from the data, not from the text of the source: active = GI50 up to about 1.1 µM and inactive = higher.

How the values were obtained:
Assay in all cases: NCI anticancer screen, dose series, 48 h
KM12 = system: KM12
SR = system: SR
786-0 = system: 786-0
HCT-116 = system: HCT-116
MCF7 = system: MCF7
EKVX = system: EKVX
MDA-MB-231 = system: MDA-MB-231
OVCAR-8 = system: OVCAR-8
K562 = system: K562
T47D = system: T47D
U-251 = system: U-251
A549 = system: A549
NCI-H460 = system: NCI-H460
SF-268 = system: SF-268
COLO 205 = system: COLO 205
SK-MEL-2 = system: SK-MEL-2
UO-31 = system: UO-31
NCI/ADR-RES = system: NCI/ADR-RES
OVCAR-3 = system: OVCAR-3
UACC-62 = system: UACC-62
SNB-75 = system: SNB-75
SNB-19 = system: SNB-19
NCI-H226 = system: NCI-H226
DU-145 = system: DU-145
CCRF-CEM = system: CCRF-CEM
HT-29 = system: HT-29
A498 = system: A498
MDA-MB-435 = system: MDA-MB-435
SN12C = system: SN12C
CAKI-1 = system: CAKI-1
BT-549 = system: BT-549
NCI-H23 = system: NCI-H23
RXF 393 = system: RXF 393
SK-OV-3 = system: SK-OV-3
M14 = system: M14
PC-3 = system: PC-3
HL-60 = system: HL-60
OVCAR-4 = system: OVCAR-4
Hs-578T = system: Hs-578T
MOLT-4 = system: MOLT-4
RPMI-8226 = system: RPMI-8226
SK-MEL-5 = system: SK-MEL-5
NCI-H522 = system: NCI-H522
ACHN = system: ACHN
LOX IMVI = system: LOX IMVI
SF-539 = system: SF-539
TK-10 = system: TK-10
IGROV-1 = system: IGROV-1
HCT-15 = system: HCT-15
SW-620 = system: SW-620
MDA-N = system: MDA-N
UACC-257 = system: UACC-257
OVCAR-5 = system: OVCAR-5
SF-295 = system: SF-295
HOP-92 = system: HOP-92
Malme-3M = system: Malme-3M
HCC 2998 = system: HCC 2998
HOP-62 = system: HOP-62
SK-MEL-28 = system: SK-MEL-28

COc1ccc(NC=O)c(C(=O)CCNC(C)=O)c1
GI50 (KM12): > 100 µM (inactive)
GI50 (SR): > 100 µM (inactive)
GI50 (786-0): > 100 µM (inactive)
GI50 (HCT-116): > 100 µM (inactive)
GI50 (MCF7): > 100 µM (inactive)
GI50 (EKVX): > 100 µM (inactive)
GI50 (MDA-MB-231): > 100 µM (inactive)
GI50 (OVCAR-8): > 100 µM (inactive)
GI50 (K562): > 100 µM (inactive)
GI50 (T47D): > 100 µM (inactive)
GI50 (U-251): > 100 µM (inactive)
GI50 (A549): > 100 µM (inactive)
GI50 (NCI-H460): > 100 µM (inactive)
GI50 (SF-268): > 100 µM (inactive)
GI50 (COLO 205): > 100 µM (inactive)
GI50 (SK-MEL-2): > 100 µM (inactive)
GI50 (UO-31): > 100 µM (inactive)
GI50 (NCI/ADR-RES): > 100 µM (inactive)
GI50 (OVCAR-3): > 100 µM (inactive)
GI50 (UACC-62): > 100 µM (inactive)
GI50 (SNB-75): > 100 µM (inactive)
GI50 (SNB-19): > 100 µM (inactive)
GI50 (NCI-H226): > 100 µM (inactive)
GI50 (DU-145): > 100 µM (inactive)
GI50 (CCRF-CEM): > 100 µM (inactive)
GI50 (HT-29): > 100 µM (inactive)
GI50 (A498): > 100 µM (inactive)
GI50 (MDA-MB-435): > 100 µM (inactive)
GI50 (SN12C): > 100 µM (inactive)
GI50 (CAKI-1): > 100 µM (inactive)
GI50 (BT-549): > 100 µM (inactive)
GI50 (NCI-H23): > 100 µM (inactive)
GI50 (RXF 393): > 100 µM (inactive)
GI50 (SK-OV-3): > 100 µM (inactive)
GI50 (M14): > 100 µM (inactive)
GI50 (PC-3): > 100 µM (inactive)
GI50 (HL-60): > 100 µM (inactive)
GI50 (OVCAR-4): > 100 µM (inactive)
GI50 (Hs-578T): > 100 µM (inactive)
GI50 (MOLT-4): > 100 µM (inactive)
GI50 (RPMI-8226): > 100 µM (inactive)
GI50 (SK-MEL-5): > 100 µM (inactive)
GI50 (NCI-H522): > 100 µM (inactive)
GI50 (ACHN): > 100 µM (inactive)
GI50 (LOX IMVI): > 100 µM (inactive)
GI50 (SF-539): > 100 µM (inactive)
GI50 (TK-10): > 100 µM (inactive)
GI50 (IGROV-1): > 100 µM (inactive)
GI50 (HCT-15): > 100 µM
GI50 (SW-620): > 100 µM (inactive)
GI50 (MDA-N): > 100 µM (inactive)
GI50 (UACC-257): > 100 µM (inactive)
GI50 (OVCAR-5): > 100 µM (inactive)
GI50 (SF-295): > 100 µM (inactive)
GI50 (HOP-92): > 100 µM (inactive)

NS(=O)(=O)c1ccc(Nc2c3ccccc3nc3c(C(=O)NCCCN(CCO)CCO)cccc23)cc1
GI50 (KM12): 16.7 µM (inactive)
GI50 (SR): 12.8 µM (inactive)
GI50 (Malme-3M): 20.4 µM (inactive)
GI50 (786-0): 19.3 µM (inactive)
GI50 (MCF7): 4.8 µM (inactive)
GI50 (EKVX): 61.5 µM (inactive)
GI50 (MDA-MB-231): 61.1 µM (inactive)
GI50 (OVCAR-8): 28.6 µM (inactive)
GI50 (K562): 18.7 µM (inactive)
GI50 (T47D): 15.8 µM (inactive)
GI50 (U-251): 13.9 µM (inactive)
GI50 (A549): 26.7 µM (inactive)
GI50 (NCI-H460): 15.7 µM (inactive)
GI50 (SF-268): 21.8 µM (inactive)
GI50 (COLO 205): 13 µM (inactive)
GI50 (SK-MEL-2): 20.1 µM (inactive)
GI50 (UO-31): > 100 µM (inactive)
GI50 (NCI/ADR-RES): > 100 µM (inactive)
GI50 (OVCAR-3): 24.3 µM (inactive)
GI50 (UACC-62): 17.9 µM (inactive)
GI50 (SNB-19): 15.2 µM (inactive)
GI50 (DU-145): 29.9 µM (inactive)
GI50 (CCRF-CEM): 8.41 µM (inactive)
GI50 (HT-29): 25.6 µM (inactive)
GI50 (A498): 47.9 µM (inactive)
GI50 (MDA-MB-435): 19.6 µM (inactive)
GI50 (SN12C): 16.4 µM (inactive)
GI50 (CAKI-1): > 100 µM (inactive)
GI50 (HCC 2998): 17.7 µM (inactive)
GI50 (BT-549): 20.4 µM (inactive)
GI50 (NCI-H23): 23.4 µM (inactive)
GI50 (SK-OV-3): 27.2 µM (inactive)
GI50 (M14): 24.2 µM (inactive)
GI50 (PC-3): 34.2 µM (inactive)
GI50 (HL-60): > 10 µM (inactive)
GI50 (OVCAR-4): 31.3 µM (inactive)
GI50 (Hs-578T): 19.6 µM (inactive)
GI50 (MOLT-4): 4.86 µM (inactive)
GI50 (RPMI-8226): 22.3 µM (inactive)
GI50 (HOP-62): 24.8 µM (inactive)
GI50 (SK-MEL-5): 14.8 µM (inactive)
GI50 (NCI-H522): 18.2 µM (inactive)
GI50 (SK-MEL-28): 22.4 µM (inactive)
GI50 (ACHN): 37.2 µM (inactive)
GI50 (LOX IMVI): 18.8 µM (inactive)
GI50 (TK-10): 36.6 µM (inactive)
GI50 (IGROV-1): 19.4 µM (inactive)
GI50 (HCT-15): > 100 µM
GI50 (SW-620): 21.5 µM (inactive)
GI50 (MDA-N): 19.8 µM (inactive)
GI50 (UACC-257): 31 µM (inactive)
GI50 (OVCAR-5): 24.1 µM (inactive)
GI50 (SF-295): 36.2 µM (inactive)
GI50 (HOP-92): 26.3 µM (inactive)

O=C(N/N=C\c1ccc([N+](=O)[O-])cc1)Nc1ccc2ccccc2c1
GI50 (KM12): 23.3 µM (inactive)
GI50 (SR): 20.6 µM (inactive)
GI50 (Malme-3M): 22.5 µM (inactive)
GI50 (786-0): 17.2 µM (inactive)
GI50 (HCT-116): 24.3 µM (inactive)
GI50 (MCF7): 32.5 µM (inactive)
GI50 (EKVX): 44.6 µM (inactive)
GI50 (MDA-MB-231): 26.1 µM (inactive)
GI50 (OVCAR-8): 29.8 µM (inactive)
GI50 (K562): 73.6 µM (inactive)
GI50 (T47D): 56.1 µM (inactive)
GI50 (U-251): 21.4 µM (inactive)
GI50 (A549): 43.8 µM (inactive)
GI50 (NCI-H460): 18.5 µM (inactive)
GI50 (SF-268): 35.1 µM (inactive)
GI50 (COLO 205): 24.7 µM (inactive)
GI50 (SK-MEL-2): > 100 µM (inactive)
GI50 (UO-31): 82.4 µM (inactive)
GI50 (NCI/ADR-RES): 50.6 µM (inactive)
GI50 (OVCAR-3): > 100 µM (inactive)
GI50 (UACC-62): 28.1 µM (inactive)
GI50 (SNB-75): 27.2 µM (inactive)
GI50 (SNB-19): 52.1 µM (inactive)
GI50 (NCI-H226): 32.6 µM (inactive)
GI50 (DU-145): 71.3 µM (inactive)
GI50 (CCRF-CEM): 35.3 µM (inactive)
GI50 (HT-29): 27.1 µM (inactive)
GI50 (A498): 24.2 µM (inactive)
GI50 (MDA-MB-435): 34.2 µM (inactive)
GI50 (SN12C): 45.5 µM (inactive)
GI50 (CAKI-1): 37.5 µM (inactive)
GI50 (HCC 2998): 25.4 µM (inactive)
GI50 (BT-549): 45.4 µM (inactive)
GI50 (NCI-H23): 58.3 µM (inactive)
GI50 (RXF 393): > 100 µM (inactive)
GI50 (SK-OV-3): 31.4 µM (inactive)
GI50 (M14): 32.4 µM (inactive)
GI50 (PC-3): 44.8 µM (inactive)
GI50 (OVCAR-4): 21.5 µM (inactive)
GI50 (Hs-578T): 26 µM (inactive)
GI50 (MOLT-4): > 100 µM (inactive)
GI50 (RPMI-8226): 52.8 µM (inactive)
GI50 (HOP-62): 22.2 µM (inactive)
GI50 (SK-MEL-5): 77.3 µM (inactive)
GI50 (NCI-H522): 24.6 µM (inactive)
GI50 (SK-MEL-28): 46.5 µM (inactive)
GI50 (ACHN): 51.5 µM (inactive)
GI50 (LOX IMVI): 69.7 µM (inactive)
GI50 (SF-539): 20.7 µM (inactive)
GI50 (TK-10): 37.5 µM (inactive)
GI50 (IGROV-1): 26.1 µM (inactive)
GI50 (HCT-15): 38.6 µM
GI50 (SW-620): 23.1 µM (inactive)
GI50 (MDA-N): 40.7 µM (inactive)
GI50 (UACC-257): 44.3 µM (inactive)
GI50 (OVCAR-5): 34.8 µM (inactive)
GI50 (SF-295): 49.4 µM (inactive)
GI50 (HOP-92): 28.2 µM (inactive)
